One block for each compound: values may come before it.
What was measured:
skin = conditions: humans; topical ATRA, oral 13-cis RA and etretinate; cited from earlier work
psoriasis = conditions: treatment with liarozole; cited from earlier work
RARβ = test: chimeric receptor transactivation assay, RARβ; type: cell-based; conditions: unit assumed
Description: Assays described below measure the ability of a compound to bind to, and/or activate various retinoid receptor subtypes. When in these assays a compound binds to a given receptor subtype and activates the transcription of a reporter gene through that subtype, then the compound is considered an agonist of that receptor subtype. […] In the below described assays the ability of the compounds to bind to RARα, RARβ, RARγ,RXRα, RXRβ and RXRγ receptors, and the ability or inability of the compounds to activate transcription of a reporter gene through these receptor subtypes can be tested.
The results obtained in this assay are expressed in EC50 numbers, as they are also in the chimeric receptor transactivation assay. The results of ligand binding assay are expressed in Kd numbers.

RARα = biological target: T1, RARα (Homo sapiens, UniProt P10276); test: ligand binding assay, RARα; conditions: read-out: Kd RAR α
T1 sequence (P10276 1-462): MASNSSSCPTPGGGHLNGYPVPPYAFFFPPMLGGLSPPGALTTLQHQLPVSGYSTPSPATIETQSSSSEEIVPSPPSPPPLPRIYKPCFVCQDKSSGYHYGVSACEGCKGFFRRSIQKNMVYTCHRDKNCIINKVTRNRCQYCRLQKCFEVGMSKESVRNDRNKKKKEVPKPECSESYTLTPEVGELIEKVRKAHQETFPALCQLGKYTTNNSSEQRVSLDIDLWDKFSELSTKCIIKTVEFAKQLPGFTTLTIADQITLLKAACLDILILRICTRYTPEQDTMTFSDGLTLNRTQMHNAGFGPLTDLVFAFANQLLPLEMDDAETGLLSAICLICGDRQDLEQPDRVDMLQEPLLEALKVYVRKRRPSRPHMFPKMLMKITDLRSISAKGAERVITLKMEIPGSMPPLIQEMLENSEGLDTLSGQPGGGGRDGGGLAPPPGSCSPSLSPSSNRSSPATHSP
Description: Assays described below measure the ability of a compound to bind to, and/or activate various retinoid receptor subtypes. […] In the below described assays the ability of the compounds to bind to RARα, RARβ, RARγ,RXRα, RXRβ and RXRγ receptors, and the ability or inability of the compounds to activate transcription of a reporter gene through these receptor subtypes can be tested.

skin of hairless mice = test: topical skin irritation test in hairless mice; type: in vivo, female hairless mice (Crl:SKH1-hrBR); conditions: once daily days 1 through 5, mean±SD
Description: Mice were housed individually throughout the dosing period.
Doses are disclosed as nmol/25 g.
The grading scale used is as follows:
Values can range from 0-9.
Values can range from 0-8.

P450RAI-1 = biological target: T2, P450RAI-1 (Homo sapiens, UniProt O43174); test: cell-based; conditions: intact HeLa, P450RAI-1 stably transfected, [3H]-RA, 3 hours at 37° C; read-out: P450RAI INHIBITION DATA INTACT HELA IC50
T2 sequence (O43174 1-497): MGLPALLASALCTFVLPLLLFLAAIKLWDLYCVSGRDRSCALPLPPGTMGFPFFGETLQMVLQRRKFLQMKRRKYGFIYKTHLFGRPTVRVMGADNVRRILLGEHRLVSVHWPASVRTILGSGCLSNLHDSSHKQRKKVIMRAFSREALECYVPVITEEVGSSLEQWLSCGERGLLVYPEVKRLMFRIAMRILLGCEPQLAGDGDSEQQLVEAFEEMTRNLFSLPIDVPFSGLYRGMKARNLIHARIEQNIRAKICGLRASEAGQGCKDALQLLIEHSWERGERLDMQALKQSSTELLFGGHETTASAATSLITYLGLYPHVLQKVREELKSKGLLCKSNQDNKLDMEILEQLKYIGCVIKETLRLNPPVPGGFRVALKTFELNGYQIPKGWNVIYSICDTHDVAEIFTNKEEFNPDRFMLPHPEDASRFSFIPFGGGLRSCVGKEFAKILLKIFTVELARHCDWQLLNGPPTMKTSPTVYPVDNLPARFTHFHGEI
Description: FIG. 1 is a schematic representation of the P450RAI cell based assay utilized to evaluate the ability of the compounds of the invention to inhibit the Cytochrome P450RAI enzyme.
P450RAI-1 Cell-Based Inhibitor Assay:
P450RAI-1 stably transfected HeLa cells are maintained in […] tissue culture dishes in Modified Eagle's Medium (MEM) containing 10% Fetal Bovine Serum (FBS) and 100 μg/ml hygromycin. Exponentially growing cells are harvested by incubating in trypsin. Cells are then washed with 1× Phosphate Buffered Saline (PBS) and plated in a 48-well plate at 5×10^5 cells in 0.2 ml MEM medium containing 10% FBS and 0.05 μCi [^3 H]-RA in the presence or absence of increasing concentrations of the test compounds. The compounds are diluted in 100% DMSO and then added in triplicate wells at either 10, 1 or 0.1 μM final concentration. As a positive control for RA metabolism inhibition, cells are also incubated with ketoconazole at 100, 10 and 1 μM. Cell are incubated for 3 hours at 37° C. […] The water soluble radioactivity is quantified using a β-scintillationcounter. IC50 values represent the concentration of inhibitor required to inhibit all-trans-RA metabolism by 50 percent and are derived manually from log-transformed data.

SMILES: CCOC(=O)/C=C(C)/C=C/C=C(C)/C=C/c1c(C)cc(OC)c(C)c1C [etretinate]
skin irritation (skin): substantial skin irritation in humans

SMILES: CC1=C(/C=C/C(C)=C/C=C/C(C)=C/C(=O)O)C(C)(C)CCC1 [all-trans-retinoic acid]
skin irritation (skin): substantial skin irritation in humans

SMILES: Clc1cccc(C(c2ccc3[nH]cnc3c2)n2ccnc2)c1 (stereo not shown) [liarozole]
retinoid-like effects, amelioration of psoriasis (psoriasis): effects similar to treatment by retinoids, for example amelioration of psoriasis

SMILES: CC1=C(/C=C/C(C)=C/C=C/C(C)=C\C(=O)O)C(C)(C)CCC1 [13-cis RA]
skin irritation (skin): substantial skin irritation in humans

SMILES: CN(C1CC1)C1CCC(C)(C)c2cc(C#Cc3ccc(CC(=O)O)cc3)ccc21 (stereo not shown) [Compound 8, 4-[(5-(Cyclopropyl-methyl-amino)-8,8-dimethyl-5,6,7,8-tetrahydro-naphthalene-2-yl-ethynyl)-phenyl]-acetic acid]
(EFFICACY) RAR β (RARβ): 96%
Kd (RARα): 10 µM
Cutaneous Toxicity Score (Blackjack Score) (skin of hairless mice; 100 nmole): 5 ± 2
Cutaneous Toxicity Score (Blackjack Score) (skin of hairless mice; 300 nmole): 8 ± 3
Cutaneous Toxicity Score (Blackjack Score) (skin of hairless mice; 1000 nmole): 12 ± 1

SMILES: CC1(C)CC(C)(C)c2cc(C#Cc3ccc(CC(=O)O)c(F)c3)cc(C3CC3)c2O1 [Compound 38, [4-(8-Cyclopropyl-2,2,4,4-tetramethyl-chroman-6-yl-ethynyl)-2-fluorophenyl]acetic acid]
Kd (RARα): 10 µM
Cutaneous Toxicity Score (Blackjack Score) (skin of hairless mice; 100 nmole): 1 ± 1
Cutaneous Toxicity Score (Blackjack Score) (skin of hairless mice; 1000 nmole): 10 ± 1

IC50 (P450RAI-1): 0.13 µM
SMILES: CC1(C)CC(C)(C)c2cc(C#Cc3ccc(CC(=O)O)c(F)c3)ccc2O1 [Compound 32, [2-Fluoro-4-(2,2,4,4-tetramethyl-chroman-6-yl-ethynyl)phenyl]acetic acid]
